Measured values taken from US9718835B2 (China Medical University Hospital, priority 2013, dated 2017).
Read-outs that look alike come from different tables or passages of the source.

Experiments:
[1] = target: T1, recombinant human Topoisomerase I (Homo sapiens, UniProt P11387); experiment: Topoisomerase I activity assay in a cell-free system; format: biochemical; details: purified recombinant human Topo I
T1 construct: purchased TopoGEN
T1 sequence (P11387 1-765): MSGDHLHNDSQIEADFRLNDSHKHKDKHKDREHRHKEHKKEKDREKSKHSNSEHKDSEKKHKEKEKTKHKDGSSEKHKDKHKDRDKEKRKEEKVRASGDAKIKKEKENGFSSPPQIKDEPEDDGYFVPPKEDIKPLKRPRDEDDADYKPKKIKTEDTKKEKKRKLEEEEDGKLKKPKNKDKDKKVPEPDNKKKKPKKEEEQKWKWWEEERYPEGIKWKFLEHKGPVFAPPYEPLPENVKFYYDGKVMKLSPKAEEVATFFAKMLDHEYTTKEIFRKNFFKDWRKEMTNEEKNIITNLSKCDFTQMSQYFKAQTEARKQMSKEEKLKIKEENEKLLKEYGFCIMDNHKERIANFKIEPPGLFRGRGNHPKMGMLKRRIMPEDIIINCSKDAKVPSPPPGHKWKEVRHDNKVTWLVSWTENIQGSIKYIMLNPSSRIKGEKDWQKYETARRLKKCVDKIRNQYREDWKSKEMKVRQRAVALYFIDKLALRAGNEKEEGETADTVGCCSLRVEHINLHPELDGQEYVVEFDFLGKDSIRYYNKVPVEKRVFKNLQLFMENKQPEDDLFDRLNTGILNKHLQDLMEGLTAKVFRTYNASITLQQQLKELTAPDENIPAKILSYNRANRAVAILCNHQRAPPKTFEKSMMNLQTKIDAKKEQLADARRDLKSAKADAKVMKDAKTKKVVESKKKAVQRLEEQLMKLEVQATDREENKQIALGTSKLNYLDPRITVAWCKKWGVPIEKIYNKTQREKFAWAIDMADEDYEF
Protocol: Inhibition of Topo I activity by 9a in a cell-free system. A 1-delivative with an esterified 20-hydroxy group is expected to be activated by digestion with carboxylesterases. […] We authenticated the inhibitory effect of 9a against Topo I in a dose-dependent manner Thus, we confirmed that 9a is a new class of Topo I inhibitor.
One unit of recombinant human Topoisomerase I enzyme (TopoGEN) was pre-incubated for 20 min at 37° C. with vehicle, 9a, 1, 3, or SN-38 in a final volume of 20 μL reaction buffer (10 mM Tris-HCl, pH 7.9, 1 mM EDTA, 150 mM NaCl, 0.1% BSA, 0.1 mM spermidine, 5% glycerol) was then incubated with 250 ng of supercoiled plasmid DNA for 20 min. The supercoiled, relaxed, or nicked DNA was separated by 1% agarose gel in 1×TAE (Tris-Acetate-EDTA) buffer. Ethidium bromide stained agarose gel was photographed using Gel Doc XR (Bio-Rad).

A-549 (lung carcinoma) = experiment: Sulforhodamine B cytotoxicity assay, A-549; format: cell-based, human; details: Table 1; 72 h; average ± SD
Excerpt: (§1) The human tumor cell lines used in this manuscript were A-549 (lung carcinoma), MDA-MB-231 (triple-negative breast cancer), DU-145 (hormone-insensitive prostate cancer), KB (originally isolated from epidermoid carcinoma of the nasopharynx), KBvin (vincristine-resistant KB subline), and HCT116 (colorectal adenocarcinoma). These cell lines were obtained from the Lineberger Comprehensive Cancer Center (UNC-CH) or from ATCC (Manassas, Va.), except KBvin, which was a generous gift of Professor Y.-C. Cheng (Yale University). All cell lines were maintained and assayed in RPMI-1640 medium containing 2 mM L-glutamine and 25 mM HEPES (HyClone), supplemented with 10% heat-inactivated fetal bovine serum (HyClone), 100 μg/mL streptomycin, 100 IU/mL penicillin, and 0.25 μg/mL amphotericin B (Cellgro) in a humidified atmosphere containing 5% CO2 in air. […] The 4-6×10^3 cells/well were cultured for 72 h with various concentrations of test compounds in 96-well plate at 37° C. […] Each assay was performed in triplicate with duplicated samples.

[2] = test system: DU-145 (hormone-insensitive prostate cancer); experiment: Sulforhodamine B cytotoxicity assay, DU-145; format: cell-based, human; details: Table 1; 72 h; average ± SD
Protocol: (§2) The 12 novel 1-derivatives 9a-l were evaluated for in vitro antiproliferative activity against four human tumor cell lines, KB (nasopharyngeal), A-549 (lung), DU-145 (prostate), and KBvin (MDR KB subline), by using a sulforhodamine B colorimetric assay with triplicate experiments.^30 Compounds 1 and 3 were used as controls.
(§3) The human tumor cell lines used in this manuscript were A-549 (lung carcinoma), MDA-MB-231 (triple-negative breast cancer), DU-145 (hormone-insensitive prostate cancer), KB (originally isolated from epidermoid carcinoma of the nasopharynx), KBvin (vincristine-resistant KB subline), and HCT116 (colorectal adenocarcinoma). These cell lines were obtained from the Lineberger Comprehensive Cancer Center (UNC-CH) or from ATCC (Manassas, Va.), except KBvin, which was a generous gift of Professor Y.-C. Cheng (Yale University). All cell lines were maintained and assayed in RPMI-1640 medium containing 2 mM L-glutamine and 25 mM HEPES (HyClone), supplemented with 10% heat-inactivated fetal bovine serum (HyClone), 100 μg/mL streptomycin, 100 IU/mL penicillin, and 0.25 μg/mL amphotericin B (Cellgro) in a humidified atmosphere containing 5% CO2 in air. Compound stock solutions were prepared at 10 mM in DMSO and diluted with culture medium with the final DMSO concentration ≦0.01% (v/v), a concentration without effect on cell growth. The 4-6×10^3 cells/well were cultured for 72 h with various concentrations of test compounds in 96-well plate at 37° C. […] Each assay was performed in triplicate with duplicated samples.

[3] = test system: KB (epidermoid carcinoma of the nasopharynx); experiment: Sulforhodamine B cytotoxicity assay, KB; format: cell-based, human; details: Table 1; 72 h; average ± SD; read-out: IC50 KB
Protocol: as §2, §3

[4] = test system: KBvin (vincristine-resistant KB subline); experiment: Sulforhodamine B cytotoxicity assay, KBvin; format: cell-based, human; details: Table 1; 72 h; average ± SD; read-out: IC50 KBvin
Excerpt: as §1

[5] = test system: MDA-MB-468 (Breast cancer); experiment: cells; format: cell-based, human
SKOV3 (Ovary cancer) = experiment: cells; format: cell-based, human
HCT 116 (Colon cancer) = experiment: cells; format: cell-based, human
A549 (Lung cancer) = experiment: cells; format: cell-based, human
[6] = Homo sapiens, MDA-MB-468, Table 6, read-out: In vitro cytotoxicity MDA-MB-468 (Breast cancer)
[7] = Homo sapiens, SK-OV-3, Table 6, read-out: In vitro cytotoxicity SKOV3 (Ovary cancer)
[8] = Homo sapiens, HCT-116, Table 6, read-out: In vitro cytotoxicity HCT 116 (Colon cancer)
[9] = Homo sapiens, A549, Table 6, read-out: In vitro cytotoxicity A549 (Lung cancer)

Structure (SMILES) | IC50 (A-549 (lung carcinoma)) [nM] | IC50 [2] [nM] | IC50 [3] [nM] | IC50 [4] [nM] | further results
CCc1c2c(nc3ccc(O)cc13)-c1cc3c(c(=O)n1C2)COC(=O)[C@]3(O)CC [SN-38] |  |  |  |  | Inhibition of Topo I activity (relaxation/nicking of supercoiled plasmid DNA) [1]: inhibited Topo I activity
CC[C@@]1(OC(=O)C(CC(C)C)NC(Cc2ccccc2)=NS(=O)(=O)c2ccc(C)cc2)C(=O)OCc2c1cc1n(c2=O)Cc2cc3ccccc3nc2-1 (stereo partly drawn) [Compound 9h] | 890 ± 39 | 1100 ± 16 | 4400 ± 420 | 1800 ± 30 | 
CC[C@@]1(OC(=O)CNC(Cc2ccc(OC)cc2)=NS(=O)(=O)c2ccc(C)cc2)C(=O)OCc2c1cc1n(c2=O)C(C)c2cc3ccccc3nc2-1 (stereo partly drawn) [#10] |  |  |  |  | IC50 [5, 6]: 1650 ± 90.8 nM; IC50 (SKOV3 (Ovary cancer); [7]): 132 ± 24.2 nM; IC50 (HCT 116 (Colon cancer); [8]): 2090 ± 96.1 nM; IC50 (A549 (Lung cancer); [9]): 2810 ± 416 nM
CCC(C)C(NC(Cc1ccccc1)=NS(=O)(=O)c1ccc(C)cc1)C(=O)O[C@]1(CC)C(=O)OCc2c1cc1n(c2=O)Cc2cc3ccccc3nc2-1 (stereo partly drawn) [Compound 9j] | 6500 ± 430 | 11000 ± 750 | 11000 ± 1000 | 8200 ± 610 | 
CCc1c2c(nc3ccccc13)-c1cc3c(c(=O)n1C2)COC(=O)[C@@]3(CC)OC(=O)CNC(Cc1ccc(OC)cc1)=NS(=O)(=O)c1ccc(C)cc1 [Wcpt-03] |  |  |  |  | IC50 ([5]; Table 6, read-out: In vitro cytotoxicity MDA-MB-468 (Breast cancer)): 17.7 ± 3.2 nM; IC50 (SKOV3 (Ovary cancer); Table 6, read-out: In vitro cytotoxicity SKOV3 (Ovary cancer)): 8.08 ± 1.67 nM; IC50 (HCT 116 (Colon cancer); Table 6, read-out: In vitro cytotoxicity HCT 116 (Colon cancer)): 208 ± 4.79 nM; IC50 (A549 (Lung cancer); Table 6, read-out: In vitro cytotoxicity A549 (Lung cancer)): 48.3 ± 1.72 nM
CCc1c2c(nc3ccc(OC(=O)N4CCC(N5CCCCC5)CC4)cc13)-c1cc3c(c(=O)n1C2)COC(=O)[C@@]3(CC)OC(=O)CNC(Cc1ccc(OC)cc1)=NS(=O)(=O)c1ccc(C)cc1 [Compound Wcpt-39] |  |  |  |  | IC50 ([5]; Homo sapiens, MDA-MB-468, read-out: In vitro cytotoxicity MDA-MB-468 (Breast cancer)): 6640 ± 497 nM; IC50 (SKOV3 (Ovary cancer); Homo sapiens, SK-OV-3, read-out: In vitro cytotoxicity SKOV3 (Ovary cancer)): 4380 ± 674 nM; IC50 (HCT 116 (Colon cancer); Homo sapiens, HCT-116, read-out: In vitro cytotoxicity HCT 116 (Colon cancer)): 12500 ± 445 nM; IC50 (A549 (Lung cancer); Homo sapiens, A549, read-out: In vitro cytotoxicity A549 (Lung cancer)): 30700 ± 2120 nM
CC[C@@]1(OC(=O)C(CC(C)C)NC(Cc2ccc(OC)cc2)=NS(=O)(=O)c2ccc(C)cc2)C(=O)OCc2c1cc1n(c2=O)Cc2cc3ccccc3nc2-1 (stereo partly drawn) [Compound 9g] | 950 ± 18 | 1600 ± 96 | 2700 ± 8.3 | 1000 ± 130 | 
CC[C@@]1(OC(=O)CNC(Cc2ccc(OC)cc2)=NS(=O)(=O)c2ccc(C)cc2)C(=O)OCc2c1cc1n(c2=O)Cc2cc3c(CN4CCN(C)CC4)c(O)ccc3nc2-1 [#9] |  |  |  |  | IC50 [5, 6]: 871 ± 44.9 nM; IC50 (SKOV3 (Ovary cancer); [7]): 1700 ± 279 nM; IC50 (HCT 116 (Colon cancer); [8]): 458 ± 46.3 nM; IC50 (A549 (Lung cancer); [9]): 13200 ± 1090 nM
CC[C@@]1(OC(=O)CNC(Cc2ccccc2)=NS(=O)(=O)c2ccc(C)cc2)C(=O)OCc2c1cc1n(c2=O)Cc2cc3ccccc3nc2-1 [Compound 9b] | 57 ± 3.9 | 130 ± 11 | 180 ± 0.8 | 100 ± 7.3 | 
CC[C@@]1(OC(=O)C(NC(Cc2ccccc2)=NS(=O)(=O)c2ccc(C)cc2)C(C)C)C(=O)OCc2c1cc1n(c2=O)Cc2cc3ccccc3nc2-1 (stereo partly drawn) [Compound 9f] | 1300 ± 120 | 2000 ± 250 | 11000 ± 280 | 2200 ± 56 | 
CC[C@@]1(OC(=O)C(Cc2ccccc2)NC(Cc2ccc(OC)cc2)=NS(=O)(=O)c2ccc(C)cc2)C(=O)OCc2c1cc1n(c2=O)Cc2cc3ccccc3nc2-1 (stereo partly drawn) [Compound 9k] | 120 ± 10 | 220 ± 25 | 850 ± 24 | 120 ± 1.9 | 
CC[C@@]1(OC(=O)C(Cc2ccccc2)NC(CCO)=NS(=O)(=O)c2ccc(C)cc2)C(=O)OCc2c1cc1n(c2=O)Cc2cc3ccccc3nc2-1 (stereo partly drawn) [Compound 9l] | 83 ± 10 | 200 ± 13 | 310 ± 21 | 140 ± 8.1 | 
CCc1c2c(nc3ccc(O)cc13)-c1cc3c(c(=O)n1C2)COC(=O)[C@@]3(CC)OC(=O)CNC(Cc1ccc(OC)cc1)=NS(=O)(=O)c1ccc(C)cc1 [Compound Wcpt-37] |  |  |  |  | IC50 [5, 6]: 7.54 ± 4.07 nM; IC50 (SKOV3 (Ovary cancer); [7]): 11.6 ± 4.08 nM; IC50 (HCT 116 (Colon cancer); [8]): 55.8 ± 2.05 nM; IC50 (A549 (Lung cancer); [9]): 121 ± 15.8 nM
CC[C@@]1(OC(=O)C(C)NC(Cc2ccccc2)=NS(=O)(=O)c2ccc(C)cc2)C(=O)OCc2c1cc1n(c2=O)Cc2cc3ccccc3nc2-1 (stereo partly drawn) [Compound 9d] | 71 ± 6.9 | 150 ± 22 | 220 ± 17 | 96 ± 9.4 | 
CC[C@@]1(OC(=O)C(NC(Cc2ccc(OC)cc2)=NS(=O)(=O)c2ccc(C)cc2)C(C)C)C(=O)OCc2c1cc1n(c2=O)Cc2cc3ccccc3nc2-1 (stereo partly drawn) [Compound 9e] | 1000 ± 110 | 1700 ± 140 | 11000 ± 480 | 1500 ± 110 | 
CC[C@@]1(OC(=O)CNC(Cc2ccc(F)cc2)=NS(=O)(=O)c2ccc(C)cc2)C(=O)OCc2c1cc1n(c2=O)Cc2cc3ccccc3nc2-1 [#11] |  |  |  |  | IC50 [5, 6]: 49.7 ± 6.53 nM; IC50 (SKOV3 (Ovary cancer); [7]): 31.1 ± 6.05 nM; IC50 (HCT 116 (Colon cancer); [8]): 71.9 ± 2.59 nM; IC50 (A549 (Lung cancer); [9]): 123 ± 9.1 nM
CC[C@@]1(OC(=O)C(C)NC(Cc2ccc(OC)cc2)=NS(=O)(=O)c2ccc(C)cc2)C(=O)OCc2c1cc1n(c2=O)Cc2cc3ccccc3nc2-1 (stereo partly drawn) [Compound 9c] | 89 ± 8.3 | 140 ± 5.9 | 910 ± 60 | 87 ± 8.7 | 
CCC(C)C(NC(Cc1ccc(OC)cc1)=NS(=O)(=O)c1ccc(C)cc1)C(=O)O[C@]1(CC)C(=O)OCc2c1cc1n(c2=O)Cc2cc3ccccc3nc2-1 (stereo partly drawn) [Compound 9i] | 1200 ± 66 | 8300 ± 140 | 9600 ± 42 | 1700 ± 160 | 
